pIC50: −log10 of the molar value. Structures can show the parent of a compound that is named as a salt.

The subject of the assay is Human U937 (cell line) PDE-IV enzime. The assay can be described thus: Cyclic nucleotide phosphodiesterase (PDE-IV) enzyme inhibition, two-step [3H]cAMP procedure. The class given is biochemical. The following applies: [3H]cAMP substrate, 30 °C for 30 min, Tris buffer pH=7.6. As for the experimental part: Cyclic nucleotide phosphodiesterase activity is measured by a two-step procedure. […] The reaction is initiated by addition of the substrate. […] After cooling the tubes, 50µl of Crotalux atrox (0.5 mg/ml dest. water) is added and the samples are incubated and shaked for 30 min at 37°C. […] The mixture of 500 µl supernatant and 5 ml of liquid scintillation cocktail is measured to determine the amount of formed ^3H adenosine.
With `CCOc1ccc(/C=C2\NCCc3cc(OCC)c(OCC)cc32)cc1OCC` [drotaverin hydrochloride, reference compound], the pIC50 (as a rule, the IC50 on a negative log10 scale, so that one unit is a factor of ten) was 5.33. With “drotaverin-saccharimide ethanolate [Example 1]”, the pIC50 is 5.42. As for `CCOc1ccc(C=C2NCCc3cc(OCC)c(OCC)cc32)cc1OCC` [Example 2, drotaverin cyclamate], the pIC50 is 6.00.
